Measured values reported in patent US20260034277A1, “SYSTEMS AND METHODS FOR PATHOGEN INACTIVATION OF BLOOD PRODUCTS” (Cerus Corporation, priority 2024, published 2026).

How the values were obtained:
Assay type in all cases: cell-based
Klebsiella pneumoniae = Klebsiella pneumoniae inactivation in platelet units with amotosalen/UVA, colony forming unit assay
Protocol: A study was performed to evaluate pathogen inactivation with treatment profiles from Example 1 and the bacterium Klebsiella pneumoniae. Units of platelets, prepared in 47% plasma/53% PAS at a volume of 250 mL (except the 70 μM study group at a volume of 200 mL), were inoculated with an overnight culture of Klebsiella pneumoniae (targeting the final concentration in unit of approximately 6 log CFU/mL) and dosed with the target amotosalen concentration (40 μM, 45 μM, 55 μM or 70 μM) in an illumination container of an INTERCEPT® Blood System processing set. The units were mixed well, and samples were collected from each unit prior to UV illumination to determine pre-treatment bacterial titers and amotosalen concentration. The Klebsiella-contaminated platelet units were then subjected to a UVA light dose of 3.8 J/cm^2 (3.2 J/cm^2 for the 200 mL units) using an illuminator with LED light sources having peak wavelength between 340-350 nm. Samples were collected post-illumination and both the pre- and post-UVA illumination samples were analyzed by standard colony forming unit assay to determine the level of bacterial inactivation.
A similar study was performed with the bacterium Klebsiella pneumoniae. Four units of platelets in 47% plasma/53% PAS at a volume of 450 mL were inoculated in a 1.3 L illumination container with an overnight culture of Klebsiella pneumoniae at a target input pathogen concentration of approximately 8 log CFU/mL per unit and dosed with S-59 to achieve a target concentration of 55 μM. Samples were collected pre- and post-UVA illumination with a light dose of 6.3 J/cm^2 for determination of bacterial titers by standard colony forming unit assay and S-59 concentration by HPLC.

adenovirus type 5 (Ad5) = experiment: Adenovirus type 5 inactivation in platelet units with amotosalen/UVA, plaque assay; conditions: for Log Reduction / Post-UVA PFU/mL: 250 mL platelets, UVA 3.8 J/cm^2
Protocol: Another study was performed evaluating pathogen inactivation with treatment profiles from Example 1 and the non-enveloped virus adenovirus type 5 (Ad5). Units of platelets, prepared in 47% plasma/53% PAS at a volume of 250 mL, were inoculated with Ad5 (targeting the final concentration in unit of approximately 4.5 or 6.5 log PFU/mL), and dosed with the target amotosalen concentration (45 μM or 50 μM) in an illumination container of an INTERCEPT® Blood System processing set. The units were mixed well, and samples were collected from each unit prior to UV illumination to determine pre-treatment viral titers and amotosalen concentration. The Ad5-contaminated platelet units were then subjected to a UVA light dose of 3.8 J/cm^2 using an illuminator with LED light sources having peak wavelength between 340-350 nm. Samples were collected post-illumination and both the pre- and post-UVA illumination samples were analyzed by standard plaque assay to determine the level of virus inactivation.

bluetongue virus (BTV) = experiment: Bluetongue virus inactivation in platelet units with amotosalen/UVA, plaque assay
Protocol: A study was performed to evaluate pathogen inactivation with treatment profiles from Example 1 and the non-enveloped virus bluetongue virus (BTV). Units of platelets, prepared in 47% plasma/53% PAS at a volume of 250 mL, were inoculated with BTV (targeting the final concentration in unit of approximately 4.5 log PFU/mL), and dosed with the target amotosalen concentration (40 μM, 50 μM, 60 μM, or 70 μM) in an illumination container of an INTERCEPT® Blood System processing set. The units were mixed well, and samples were collected from each unit prior to UV illumination to determine pre-treatment viral titers and amotosalen concentration. The BTV-contaminated platelet units were then subjected to a UVA light dose of 3.8 J/cm^2 using an illuminator with LED light sources having peak wavelength between 340-350 nm. Samples were collected post-illumination, and both the pre- and post-UVA illumination samples were analyzed by standard plaque assay to determine the level of virus inactivation.
Pathogen inactivation of both viruses and bacteria was also tested using dosing device system-based quantized dosing of amotosalen and the treatment parameters described above. In one study, four units of platelets in 47% plasma/53% PAS at a higher 450 mL volume were inoculated in a 1.3 L illumination container with bluetongue virus (BTV) at a target pathogen input concentration of approximately 5.0 log PFU/mL per unit and dosed with amotosalen (S-59) to achieve at a target concentration of 55 μM. The units were mixed, and samples were collected from each unit prior to UV illumination to determine pre-treatment viral titers and S-59 concentration. The BTV-contaminated platelet units were then subjected to a UVA light dose of 6.3 J/cm^2 using an illuminator with LED light sources having peak wavelength between 340-350 nm. Samples were collected post-illumination, and both the pre- and post-UVA illumination samples were analyzed by standard plaque assay to determine the level of virus inactivation and by HPLC to determine the S-59 concentration.

[1] = device-dosed S-59 target 55 μM, 450 mL platelets, 1.3 L container, UVA 6.3 J/cm^2
[2] = target S-59 40 μM, 250 mL platelets, UVA 3.8 J/cm^2
[3] = target S-59 45 μM, 250 mL platelets, UVA 3.8 J/cm^2
[4] = target S-59 55 μM, 250 mL platelets, UVA 3.8 J/cm^2
[5] = target S-59 70 μM, 200 mL platelets, UVA 3.2 J/cm^2
[6] = target S-59 45 μM, Pre-UVA 4.1 Log PFU/mL
[7] = target S-59 50 μM, Pre-UVA 4.5 Log PFU/mL
[8] = target S-59 50 μM, Pre-UVA 6.7 Log PFU/mL
[9] = target S-59 50 μM, 250 mL platelets, UVA 3.8 J/cm^2
[10] = target S-59 60 μM, 250 mL platelets, UVA 3.8 J/cm^2
[11] = target S-59 70 μM, 250 mL platelets, UVA 3.8 J/cm^2

## Cc1oc2c(C)c3oc(=O)cc(C)c3cc2c1COCCN [S-59, 3-(2-aminoethoxymethyl)-2,5,9-trimethylfuro[3,2-g]chromen-7-one]
Klebsiella pneumoniae; [1]
  Post-UVA titer: 0.3 ± 0.4 cfu/mL
Klebsiella pneumoniae; each of the four target amotosalen input concentrations (40, 45, 55, 70 μM)
  bacterial inactivation (log reduction): greater than 5 logs
Klebsiella pneumoniae; [2]
  Log Reduction: 5.6 ± 0.8 log
  Post-UVA CFU/mL: 6.7 ± 11.5 CFU/mL
Klebsiella pneumoniae; [3]
  Log Reduction: 5.9 ± 0.0 log
  Post-UVA CFU/mL: 0.2 ± 0.1 CFU/mL
Klebsiella pneumoniae; [4]
  Log Reduction: 6.0 ± 0.1 log
  Post-UVA CFU/mL: 0.4 ± 0.5 CFU/mL
Klebsiella pneumoniae; [5]
  Log Reduction: ≥6.1 ± 0.1 log
  Post-UVA CFU/mL: 0.03 ± 0.1 CFU/mL
Adenovirus type 5 (Ad5); each of the 45 μM or 50 μM target amotosalen input concentrations
  viral inactivation: greater than 4 logs
Adenovirus type 5 (Ad5); [6]
  Log Reduction: >4.1 ± 0.2 log
  Post-UVA PFU/mL: 0.0 ± 0.0 PFU/mL
Adenovirus type 5 (Ad5); [7]
  Log Reduction: 4.5 ± 0.0 log
  Post-UVA PFU/mL: 0.0 ± 0.0 PFU/mL
Adenovirus type 5 (Ad5); [8]
  Log Reduction: ≥6.3 ± 0.5 log
  Post-UVA PFU/mL: ≤6.9 ± 12.7 PFU/mL
Bluetongue virus (BTV); [1]
  Log Reduction: 5.0±0.4 Log (pfu/mL)
  Post-UVA titer: 0.7 ± 0.6 pfu/mL
Bluetongue virus (BTV); each of the four target amotosalen input concentrations (40, 50, 60, 70 μM)
  viral inactivation: greater than 4 logs
Bluetongue virus (BTV); [2]
  Log Reduction: 4.4 ± 0.1 log
  Post-UVA PFU/mL: 0.3 ± 0.1 PFU/mL
Bluetongue virus (BTV); [9]
  Log Reduction: 4.4 ± 0.4 log
  Post-UVA PFU/mL: 0.1 ± 0.1 PFU/mL
Bluetongue virus (BTV); [10]
  Log Reduction: >4.6 ± 0.5 log
  Post-UVA PFU/mL: 0.02 ± 0.03 PFU/mL
Bluetongue virus (BTV); [11]
  Log Reduction: 4.2 ± 0.1 log
  Post-UVA PFU/mL: 0.1 ± 0.2 PFU/mL
